Assay results: patent EP4245293B1, “USE OF SUGAR AMINES AS COMPLEXING AGENTS” (Clariant International Ltd, priority 2022, dated 2023)

How the values were obtained:
Type in all cases: physicochemical
[1] = Complexing ability test vs. EDTA (color changes and precipitate formation); conditions: for Result: Fe^3+ solution 0,2 mmol/L, observed color and precipitate; for chelating strength for Iron^3+ ions relative to EDTA: both EDTA and chelant present, judged from the colored complex formed
Protocol: The relative complexing ability of the chelant is evaluated vs. EDTA by observing color changes and precipitate formation.
To Fe^3+ and Cu^2+ solutions (c = 0,2 mmol/L), solutions of chelants are added: • Na4EDTA at 0,4 mmol/L • Na4EDTA at 2 mmol/L • Only chelant (Dimethylglucamine or Piroctone Olamine) at 0,6 mmol/L • Chelant (Dimethylglucamine or Piroctone Olamine) at 0,6 mmol/L + Na4EDTA 0,4 mmol/L • Chelant (Dimethylglucamine or Piroctone Olamine) at 0,6 mmol/L + Na4EDTA 2 mmol/L

[2] = Confirmation of complex formation with single chelants, Fe3+ ions
[3] = Confirmation of complex formation with single chelants, Cu2+ ions
[4] = Complexing ability test of Dimethylglucamine vs. Aminomethylpropanol; conditions: for Result: Cu^2+ solution 0,2 mmol/L, each chelant at 0.6 mmol/L, observed color and precipitate
Protocol: The relative complexing ability of the chelant Dimethylglucamine is evaluated vs. Aminomethylpropanol by observing color changes and precipitate formation. In particular Aminomethylpropanol was chosen since in the previous test c) it was shown that Aminomethylpropanol makes complex with Copper that differs in color of Copper complex with Dimethylglucamine. Therefore, it is possible to evaluate the strength of complexation of Aminomethylpropanol and Dimethylglucamine when both chelants are present in solution of Copper^2+ ions by observing the color of solution. To Cu^2+ solutions (c = 0,2 mmol/L), solutions of chelants are added: • Aminomethylpropanol at 0,6 mmol/L • Dimethylglucamine at 0,6 mmol/L • Aminomethylpropanol at 0,6 mmol/L + Dimethylglucamine 0,6 mmol/L

[5] = Fe^3+ solution 0,2 mmol/L with single chelant
[6] = Fe^3+ solution 0,2 mmol/L, single chelant added at c=0,2 mmol/L, observed color and precipitate
[7] = Cu^2+ solution 0,2 mmol/L with single chelant
[8] = Cu^2+ solution 0,2 mmol/L, single chelant added at c=0,2 mmol/L, observed color and precipitate

pH [2, 5]	pH [3, 7]	pH [2]	pH [3]	Compound	Result ([1]; only chelant at 0,6 mmol/L)	chelating strength for Iron^3+ ions relative to EDTA [1]	Result [2, 6]	Result [3, 8]	Result [4]	Result ([1]; EDTA 0.4 mmol/L, alone or with chelant at 0,6 mmol/L)	Result ([1]; EDTA 2 mmol/L, alone or with chelant at 0,6 mmol/L)	Result [2]	Result [3]	complex formed in presence of Aminomethylpropanol and Cu^2+ ions ([4]; both chelants present at 0,6 mmol/L)	complexes formed with Iron^3+ ions [2]	complexes formed with Copper^2+ ions [3]
3.8	8.3			Cc1cc(CC(C)CC(C)(C)C)n(O)c(=O)c1.NCCO (stereo not shown) [Piroctone Olamine]	Turbid yellowish solution with distinct orange precipitate	stronger than EDTA	Turbid solution with distinct orange precipitate	Turbid, light blue solution								
4.0	9.2			CC(C)(N)CO [Aminomethylpropanol]			Clear solution with distinct orange precipitate	Clear solution with distinct brown precipitate	Clear solution with distinct brown precipitate							
		10.6	10.0	O=C(O)CN(CCN(CC(=O)O)CC(=O)O)CC(=O)O [EDTA, ethylenediaminetetraacetic acid]						Clear, very slightly yellowish solution	Clear, very slightly yellowish solution	Clear, very slightly yellowish solution	Clear, light blue solution			
3.4	6.5			CN(C)C[C@H](O)[C@@H](O)[C@H](O)[C@H](O)CO [Dimethylglucamine, N,N-dimethylglucamine]	Clear solution with distinct orange precipitate	stronger chelating agent than EDTA	Clear solution with distinct orange precipitate	Clear, light blue solution	Clear light blue solution					distinct blue complex of Dimethylglucamine is formed instead of brown complex of Aminomethylpropanol and Cu^2+ ions	distinct orange complexes	blue complexes
3.3	4.6			NCC(=O)O [Glycine]			Clear solution with distinct orange precipitate	Clear, slightly bluish solution								
